Assay results taken from PubChem BioAssay AID2060601 (Molecular Pharmacology Branch, DTP, NCI, 2025).
Several values for one entry are separate records, joined by “and”; a condition that tells them apart may be missing. Equal values may be shown once.

Test system: 874868-142-R-J2-PDC complex spheroids, growth % test/control
Test: Anticancer human tumor 874868-142-R-J2-PDC patient-derived head and neck squamous carcinoma cell line growth inhibition [CLK]
Settings: for viability, T/C: stronger effect = lower value
From the text: A high-throughput screen of multi-cell type tumor spheroids was designed to identify active combinations of […] and targeted small molecules. Complex spheroids include a stromal component modeled by human endothelial cells (HUVEC) and fibroblasts modeled by human mesenchymal stem cells (MSCs). The concentration ranges selected for each drug and investigational agent were based upon clinically achievable concentrations if the clinical Cmax of the agent was known.
Compounds. The drugs and investigational agents: cirtuvivint (SM08502; NSC835563), CC-671 (NSC850746), vemurafenib (NSC761431), tapotoclax (NSC804041), sotorasib (NSC818433), adagrasib (NSC831453), MRTX-1133 (NSC836407), BAY2416964 (NSC825713), copanlisib (NSC816437), inavolisib (NSC800729), abemaciclib (NSC768073), osimertinib (NSC779217), entinostat (NSC756642), eltanexor (KPT-8602, NSC794443), venetoclax (NSC766270), ceralasertib (NSC777638), bortezomib (NSC756655), olaparib (NSC753686), talazoparib (NSC767125), alisertib (NSC759677), peposertib (NSC802822), gemcitabine (NSC613327), 5-fluorouracil (NSC19893), SN-38 (NSC673596), oxaliplatin (NSC266046), paclitaxel (NSC125973), and doxorubicin (NSC123127), were obtained from the National Cancer Institute (NCI) Developmental Therapeutics Program Chemical Repository. The FDA-approved anticancer drug set is available from the Developmental Therapeutics Program at https://dtp.cancer.gov/organization/dscb/obtaining/available plates.htm. […] The stock solutions were prepared in dimethyl sulfoxide (DMSO, Sigma-Aldrich, St. Louis, MO, cat. D2650), except for the platinum complexes which were prepared in saline (Quality Biological, Gaithersburg, MD, cat. 114-055-101), at 800-fold the tested concentration and stored at -70 degrees C prior to their use. All drugs and investigational agents were tested over a range starting from a high concentration at or near the clinical Cmax and decreasing in half-log increments. If the clinical Cmax for an agent had not been determined, the highest concentration tested was 10 microM.
Cell Culture. All cells were maintained in an incubator at 37 degrees C and 5% CO2 with 95% humidity. The PDC lines were cultured according to standard operating procedures established by the NCI PDMR. Briefly, all PDCs were thawed and cultured in Matrigel-coated flasks prepared with a working solution of 1X Ham's F-12 nutrient mix, without supplementation (Invitrogen, Waltham, MA, cat. 11765054), 100 U/mL penicillin-streptomycin (Invitrogen, cat. 15140122), and 2.5% Matrigel (Corning Inc., Corning, NY, cat. 354248) for the first three passages. The 947758-054-R-J2-PDC line was cultured in 6B/Colon 1A media, which includes advanced DMEM/F-12 (Thermo Fisher Scientific, cat. 12634028), 10 mM HEPES (Thermo Fisher Scientific, cat. 15630080), 1X GlutaMAX supplement (Thermo Fisher Scientific, cat. 35050061), 0.1 mg/mL primocin (InvivoGen, cat. ant-pm-2), 10% defined fetal bovine serum, heat inactivated (HyClone Laboratories Inc., cat. SH30070.03HI), 1.25 mM N-Acetyl-L-cysteine (Sigma-Aldrich, cat. A9165), 10 mM nicotinamide (Sigma-Aldrich, cat. N0636), 1X B-27 supplement (Thermo Fisher Scientific, cat. 17504044), 1X N-2 supplement (Thermo Fisher Scientific, cat. 17502048), and 10 microM Y-27632 dihydrochloride (Tocris Bioscience, cat. 1254). The 876862-298-R-J1-PDC was cultured in 6E media, which includes all 6B/Colon 1A media components plus 50% L-WRN conditioned media (ATCC, cat. CRL-3276), 50 ng/mL recombinant human EGF recombinant protein (hEGF; Thermo Fisher Scientific, cat. PHG0311), 10 ng/mL recombinant human fibroblast growth factor 10 (hGFG-10; PeproTech, cat. 100-26), 1 ng/mL recombinant human fibroblast growth factor 2 (hFGF-2; PeproTech, cat. 100-18B), and 1 µM prostaglandin E2 (PGE2; Tocris, cat. 2296). The 227483-062-R1-J1-PDC line was cultured in Panc media, containing all 6E components except hFGF-2, with the addition of 500 nM SB-431542 (Selleckchem, cat. S1067) and 10 nM gastrin (Tocris, cat. 3006). […]
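Further: spheroids exposed to the compounds for 7 days.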

## Nc1ccn(C2OC(CO)C(O)C2(F)F)c(=O)n1 (stereo not drawn)
Compound 0.0316 µM
  viability, T/C: 81.2% and 81.7%
Compound 0.1 µM
  viability, T/C: 78.9% and 76.2%
Compound 0.316 µM
  viability, T/C: 49.2% and 54.9%
Compound 1 µM
  viability, T/C: 31.5% and 44.2%
Compound 3.16 µM
  viability, T/C: 25.7% and 40.5%
Compound 10 µM
  viability, T/C: 30.1% and 32.9%
Curve of compound
  IC50: 311 nM and 572 nM

## O=C(c1cc(Cc2n[nH]c(=O)c3ccccc23)ccc1F)N1CCN(C(=O)C2CC2)CC1
Compound 0.0316 µM
  viability, T/C: 102% and 97.1%
Compound 0.1 µM
  viability, T/C: 113% and 78.1%
Compound 0.316 µM
  viability, T/C: 95.2% and 74.9%
Compound 1 µM
  viability, T/C: 91.5% and 85.1%
Compound 3.16 µM
  viability, T/C: 86.9% and 76.4%
Compound 10 µM
  viability, T/C: 83.9% and 71.1%
Curve of compound
  IC50: > 10000 nM

## O=c1[nH]cc(F)c(=O)[nH]1
Compound 0.0316 µM
  viability, T/C: 96.6% and 97.4%
Compound 0.1 µM
  viability, T/C: 99.9% and 74.5%
Compound 0.316 µM
  viability, T/C: 85.2% and 65.8%
Compound 1 µM
  viability, T/C: 65.2% and 55.6%
Compound 3.16 µM
  viability, T/C: 38.4% and 53.1%
Compound 10 µM
  viability, T/C: 37% and 45.6%
Curve of compound
  IC50: 1990 nM and 4140 nM

## CCCS(=O)(=O)Nc1ccc(F)c(C(=O)c2c[nH]c3ncc(-c4ccc(Cl)cc4)cc23)c1F + CN1CCN(c2cc(C(=O)Nc3cc4cc(-c5cnn(C)c5)ccc4cn3)ccn2)CC1
Curve of first compound, second compound 0.0316 µM
  IC50: > 10000 nM
Curve of first compound, second compound 0.1 µM
  IC50: > 10000 nM
Curve of first compound, second compound 0.316 µM
  IC50: < 31.6 nM
Curve of first compound, second compound 1 µM
  IC50: < 31.6 nM
Curve of first compound, second compound 3.16 µM
  IC50: < 31.6 nM
Curve of first compound, second compound 10 µM
  IC50: < 31.6 nM
Second compound 0.0316 µM, first compound 0.0316 µM
  viability, T/C: 99.5%
Second compound 0.0316 µM, first compound 0.1 µM
  viability, T/C: 95.3%
Second compound 0.0316 µM, first compound 0.316 µM
  viability, T/C: 97.4%
Second compound 0.0316 µM, first compound 1 µM
  viability, T/C: 120%
Second compound 0.0316 µM, first compound 3.16 µM
  viability, T/C: 104%
Second compound 0.0316 µM, first compound 10 µM
  viability, T/C: 88.4%
Second compound 0.1 µM, first compound 0.0316 µM
  viability, T/C: 71.4%
Second compound 0.1 µM, first compound 0.1 µM
  viability, T/C: 82.1%
Second compound 0.1 µM, first compound 0.316 µM
  viability, T/C: 101%
Second compound 0.1 µM, first compound 1 µM
  viability, T/C: 103%
Second compound 0.1 µM, first compound 3.16 µM
  viability, T/C: 99.2%
Second compound 0.1 µM, first compound 10 µM
  viability, T/C: 67.2%
Second compound 0.316 µM, first compound 0.0316 µM
  viability, T/C: 21.1%
Second compound 0.316 µM, first compound 0.1 µM
  viability, T/C: 18.1%
Second compound 0.316 µM, first compound 0.316 µM
  viability, T/C: 16%
Second compound 0.316 µM, first compound 1 µM
  viability, T/C: 14.8%
Second compound 0.316 µM, first compound 3.16 µM
  viability, T/C: 20.2%
Second compound 0.316 µM, first compound 10 µM
  viability, T/C: 17.8%
Second compound 1 µM, first compound 0.0316 µM
  viability, T/C: 0.34%
Second compound 1 µM, first compound 0.1 µM
  viability, T/C: 0.78%
Second compound 1 µM, first compound 0.316 µM
  viability, T/C: 0.38%
Second compound 1 µM, first compound 1 µM
  viability, T/C: 0.32%
Second compound 1 µM, first compound 3.16 µM
  viability, T/C: 0.26%
Second compound 1 µM, first compound 10 µM
  viability, T/C: 3.04%
Second compound 3.16 µM, first compound 0.0316 µM
  viability, T/C: 0.22%
Second compound 3.16 µM, first compound 0.1 µM
  viability, T/C: 3.25%
Second compound 3.16 µM, first compound 0.316 µM
  viability, T/C: 0.32%
Second compound 3.16 µM, first compound 1 µM
  viability, T/C: 0.24%
Second compound 3.16 µM, first compound 3.16 µM
  viability, T/C: 0.3%
Second compound 3.16 µM, first compound 10 µM
  viability, T/C: 2.5%
Second compound 10 µM, first compound 0.0316 µM
  viability, T/C: 0.34%
Second compound 10 µM, first compound 0.1 µM
  viability, T/C: 0.84%
Second compound 10 µM, first compound 0.316 µM
  viability, T/C: 0.18%
Second compound 10 µM, first compound 1 µM
  viability, T/C: 0.18%
Second compound 10 µM, first compound 3.16 µM
  viability, T/C: 0.19%
Second compound 10 µM, first compound 10 µM
  viability, T/C: 2%
